In PMC8507260, “A2E-induced inflammation and angiogenesis in RPE cells in vitro are modulated by PPAR-α, -β/δ, -γ, and RXR antagonists and by norbixin” (Aging (Albany NY), 2021):

Key:
[1] = system: PPAR-α; assay: Transactivation of over-expressed PPAR-α, luciferase reporter in porcine RPE cells; type: cell-based, pig; conditions: for transactivation of over-expressed PPAR-α by the compound alone: vs DMSO control, A2E 20 μM, NBX increasing concentrations
Experimental: First, we evaluated the binding profile of A2E to all three isoforms of PPAR. […] Then the effects of A2E on the endogenous PPAR transactivation in porcine RPE cells were investigated by means of a luciferase assay. […] The level of transactivation of PPAR-α, -β/δ, or -γ isoforms by A2E was determined by co-transfection of porcine RPE cells with a plasmid expressing each of the full-length PPAR isoforms and a plasmid expressing luciferase under the control of the PPAR response element. […]. All usual chemicals, primers, and HX531 were from Sigma (St. Louis, MO, USA). Reagents for cell culture, transfection and quantitative RT-PCR were from Thermo Fisher Scientific (Waltham, MA, USA). RNA extraction NucleoSpin® RNA kit was from Macherey Nagel (Düren, Germany). ECL prime and PVDF membrane were from Amersham GE Healthcare (Buckinghamshire, UK). Primary antibodies against the following proteins were used: GAPDH (Santa Cruz Biotechnology, Inc, Dallas, TX, USA); pAKT, AKT, pERK and ERK (Cell Signaling, Danvers, MA, USA). Secondary antibodies were from Jackson ImmunoResearch (Cambridgeshire, UK). […] Cignal Pathway Reporter Assay Kits were from QIAGEN (Frederick, MD, USA). The Dual-Luciferase Reporter Assay System was purchased from Promega (Madison, WI, USA). pcDNA 3.1 (+)-PPARα and pcDNA 3.1 (+)-PPARβ/δ (pig sequence) were purchased from Genscript (Piscataway, NJ, USA). pCMV6-XL4-PPARγ (human sequence) was purchased from Origene (Rockville, MD, USA).
(§1) After one week in culture, cells were trypsinized and transferred to a 96-well plate at a density of 6 × 10^4 cells/cm^2 in DMEM2%FCS. The next day, cells were transfected using the Cignal Reporter Assay Kits for PPAR, RXR, AP-1 and NF-κB, according to the manufacturer’s specifications. To measure the specific activation of PPAR isoforms, cells were also co-transfected with PPAR-α, PPAR-β/δ or PPAR-γ expression vectors. Transfection was performed with Lipofectamine and Plus Reagent in serum-free medium. 3 h after the transfection, the medium was replaced and treatments with the molecules to assay were performed. Luciferase activity was measured the next day using the Dual-Luciferase Reporter Assay System. The measurements were performed with a luminometer (Infinite M1000 from Tecan, Mannedorf, Switzerland). Firefly: Renilla activity ratios were calculated for each condition and ratios from transcription factor-responsive reporter transfections were divided by ratios from negative control transfections to obtain relative luciferase unit, as described by the manufacturer. At least 3 independent transfections were performed in triplicate for each condition.

[2] = system: AP-1; assay: AP-1 transactivation, luciferase reporter in porcine RPE cells; type: cell-based
Experimental: (§2) Pig eyes were obtained from a local slaughterhouse and transported to the laboratory in ice-cold Ringer solution. After removal of the anterior segment of the eye, the vitreous and neural retina was separated from the RPE and removed. The eyecup was washed twice with phosphate buffer saline (PBS), filled with trypsin (0.25% in PBS) and incubated at 37°C for 1.5 h. RPE cells were harvested by gently pipetting, centrifuged to remove trypsin and re-suspended in Dulbecco’s Modified Eagle Medium (DMEM) supplemented with 20% (v/v) foetal-calf serum (DMEM20%FCS) and 0.1% gentamycin. Cells were seeded into 60 mm diameter Petri dishes, cultured in an atmosphere of 5% CO2/95% air at 37°C, and supplied with fresh medium after 24 hours and 4 days in vitro. For experiments aimed at measuring mRNA or protein expression in RPE, cells were trypsinized after one week in culture and transferred to 24-well or 6-well plates at a density of 1.5 × 10^5 cells/cm^2 in DMEM2%FCS. Norbixin or agonists were added to the medium 24 h after seeding, and antagonists were added to the medium 24 h later. A2E treatment was performed during 19 h before cellular sample preparation. All the drugs used in these experiments were prepared as stock solutions in DMSO.
as §1, with “Transfection was performed with Lipofectamine and Plus Reagent in serum-free medium. 3 h after the transfection, the medium was replaced and treatments with the molecules to assay were performed.” left out, “The measurements were performed with a luminometer (Infinite M1000 from Tecan, Mannedorf, Switzerland).” left out, “At least 3 independent transfections were performed in triplicate for each condition.” left out

[3] = system: IL-6; assay: IL-6 mRNA expression by quantitative RT-PCR in porcine RPE cells; type: cell-based; conditions: T007907 10 μM
Experimental: as §2
Total RNA was extracted using the NucleoSpin® RNA kit according to manufacturer’s instructions. RT of 500 ng of RNA was performed using the SuperScript III Reverse Transcriptase following the manufacturer’s instructions. Five ng of cDNA were amplified using the SYBR GREEN real-time PCR method. PCR primers for target genes and housekeeping gene GAPDH were designed using Primer3Plus Bioinformatic software (Table 2). The RT-PCR using the StepOne Plus (Life Technologies, Carlsbad, CA, USA) consisted of incubation at 50°C for 5 min followed by 40 cycles of 95°C for 15 s and of 60°C for 1 min. The reaction was completed by a melt curve stage at 95°C for 15 s, 60°C for 1 min, 95°C for 15 s and a final step at 60°C for 15 s. The relative mRNA expression was calculated using the comparative threshold method (Ct-method) with GAPDH for normalization. All experimental conditions were processed in triplicate and each experiment was done at least 3 times.

[4] = system: IL-18; assay: IL-18 mRNA expression by quantitative RT-PCR in porcine RPE cells; type: cell-based
Experimental: as §2, with “All the drugs used in these experiments were prepared as stock solutions in DMSO.” left out
(§3) Total RNA was extracted using the NucleoSpin® RNA kit according to manufacturer’s instructions. […] The relative mRNA expression was calculated using the comparative threshold method (Ct-method) with GAPDH for normalization. […]

[5] = system: CCL2; assay: CCL2 mRNA expression by quantitative RT-PCR in porcine RPE cells; type: cell-based
Experimental: as §2, with “All the drugs used in these experiments were prepared as stock solutions in DMSO.” left out
as §3

[6] = system: MMP9; assay: MMP9 mRNA expression by quantitative RT-PCR in porcine RPE cells; type: cell-based
Experimental: as §2, with “All the drugs used in these experiments were prepared as stock solutions in DMSO.” left out
as §3

[7] = system: ERK; assay: ERK phosphorylation by western blot in primary porcine RPE cells; type: cell-based
Experimental: as §2, with “Norbixin or agonists were added to the medium 24 h after seeding, and antagonists were added to the medium 24 h later. A2E treatment was performed during 19 h before cellular sample preparation. All the drugs used in these experiments were prepared as stock solutions in DMSO.” left out
RPE samples were lysed in 20 mM Tris-HCl, 150 mM NaCl, 1 mM EDTA, 1% NP-40, pH 7.5 buffer containing a cocktail of protease and phosphatase inhibitors. […] The signal was developed using enhanced chemiluminescence reagents (ECL) prime detection kit, quantified by densitometry using Bio1D (Vilber Lourmat, Germany) and normalized by GAPDH levels. […]

SMILES	effect on over-expressed PPAR-α transactivation induced by A2E ([1]; A2E 20 μM + NBX 20 μM)	inhibition of PPAR-α transactivation induced by GW9578 ([1]; GW9578 at 10 nM, NBX 20 μM)	transactivation of over-expressed PPAR-α by the compound alone [1]	inhibition of AP-1 transactivation induced by A2E ([2]; A2E 20 μM, NBX 20 μM, HX531 5 μM)	reduction of IL-6 mRNA expression induced by A2E ([3]; NBX 20 μM with A2E 30 μM, MK886 1 μM, GSK3787 1 μM, HX531 5 μM with A2E 20 μM)	effect on IL-18 expression induced by A2E ([4]; NBX 20 μM + A2E 30 μM, PPAR antagonists)	effect on CCL2 mRNA expression induced by A2E ([5]; NBX 20 μM + A2E 30 μM)	effect on MMP9 mRNA expression in the absence or presence of A2E ([6]; NBX 20 μM, A2E 30 μM)	effect on ERK phosphorylation induced by A2E ([7]; NBX 20 μM + A2E 30 μM)	effect of the compound alone on AP-1 transactivation ([2]; A2E 20 μM vs DMSO control)	effect of the compound alone on IL-6 mRNA expression ([3]; vs DMSO control)	effect of the compound alone on IL-18 mRNA expression ([4]; A2E 30 μM vs DMSO control)	effect of the compound alone on CCL2 mRNA expression ([5]; A2E 30 μM vs DMSO control)	effect of the compound alone on MMP9 mRNA expression ([6]; A2E 30 μM vs DMSO control)	effect of the compound alone on ERK phosphorylation ([7]; A2E 30 μM vs DMSO control)
CC(/C=C/C=C(C)/C=C/C(=O)O)=C\C=C\C=C(C)\C=C\C=C(C)\C=C\C(=O)O (stereo in doubt) [norbixin, 9’-cis-norbixin]	fully abolished	did not inhibit significantly	did not demonstrate any transactivation activity	82%	145%	not inhibited	further increased	slightly, but significantly, increased	not significantly inhibited	–	–	–	–	–	–
CC(C=CC1=C(C)CCCC1(C)C)=CC=CC(C)=Cc1cc(C=CC=C(C)C=CC2=C(C)CCCC2(C)C)cc[n+]1CCO [A2E, N-retinylidene-N-retinylethanolamine]	–	–	induced the transactivation	–	–	–	–	–	–	induced transactivation of AP-1	induces the expression	induced by A2E	up-regulated	reduced the expression	induced the phosphorylation
